Literature values as cited in US8034921B2, “IRNA agents targeting CCR5 expressing cells and uses thereof” (Alnylam Pharmaceuticals, Inc., priority 2006, dated 2011).
Where two headings read alike, the source gives them in different places. Values belong to the compound of their own block, whether it stands above or below them.

What was measured:
[1] = in vivo
CCR5 [2] = biological target: T1, CCR5 (Homo sapiens, UniProt P51681); parameters: expressed in transfected cells; host or cells: CHO cells; conditions: CHO cells expressing recombinant human CCR5
CCR5 [3] = biological target: T1, CCR5; parameters: expressed in transfected cells; host or cells: CHO cells; conditions: membranes from CHO cells stably expressing recombinant human CCR5; read-out: IC50, binding of [125I]RANTES
CCR5 [4] = biological target: T1, CCR5; parameters: expressed in transfected cells; host or cells: CHO cells; conditions: CCR5-expressing CHO cells; read-out: IC50, inhibition of [125I]RANTES binding
HIV-1 gp120/CCR5 = HIV-1 gp120/CCR5 (Homo sapiens, UniProt P51681); conditions: read-out: IC50, HIV-1 gp120/CCR5 binding
[5] = rodents
[6] = healthy volunteers
cyano CCR5 = cyano CCR5 (Macaca fascicularis, UniProt P61814); conditions: cyano CCR5, transfected CHO cell membranes; read-out: IC50, CCR5 binding against [125I]MI-1α
CCR5 [7] = biological target: T1, CCR5; conditions: read-out: IC50, inhibition of [125I]MIP-1α binding

T1 sequence (P51681 whole entry): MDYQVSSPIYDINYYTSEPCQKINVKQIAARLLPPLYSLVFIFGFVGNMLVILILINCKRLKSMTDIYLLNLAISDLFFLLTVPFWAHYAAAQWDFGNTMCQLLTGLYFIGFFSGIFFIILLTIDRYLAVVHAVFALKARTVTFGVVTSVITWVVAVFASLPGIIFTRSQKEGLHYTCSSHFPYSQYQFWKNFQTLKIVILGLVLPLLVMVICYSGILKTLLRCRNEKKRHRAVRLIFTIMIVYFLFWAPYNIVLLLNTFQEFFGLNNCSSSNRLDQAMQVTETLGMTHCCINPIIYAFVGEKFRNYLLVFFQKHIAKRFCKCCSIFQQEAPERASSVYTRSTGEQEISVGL
Chain of HIV-1 gp120/CCR5 (P51681 whole entry): as the sequence (P51681 whole entry) above

SMILES: COC[C@@H](c1ccc(C(F)(F)F)cc1)N1CCN(C2(C)CCN(C(=O)c3c(C)ncnc3C)CC2)C[C@@H]1C [Compound 1]
- viral load (HIV-infected patients; 48 HIV-infected patients, phase I): dose-dependent reduction in viral load
- cardiovascular side effects (HIV-infected patients; human, in vivo): no cardiovascular side effects
- bioavailability [1]: 100%

SMILES: CCN(C(=O)Cc1ccc(S(C)(=O)=O)cc1)C1CCN(C(C)CC(NC(=O)OC2CCOCC2)c2ccccc2)CC1 (stereo not shown) [Compound 3]
- IC50 for inhibition of CCL3 and CCL5 binding (CCR5 [2]): sub-nanomolar range

SMILES: CCN(C(=O)Nc1ccc(S(C)(=O)=O)cc1)C1CCN(CCC(c2ccccc2)c2ccccc2)CC1 [Compound 7]
- IC50 (CCR5 [3]): 49 nM

SMILES: CCCCN1C(=O)C(CC2CCCCC2)NC(=O)C12CCN(Cc1ccc3c(c1)OCCO3)CC2 (stereo not shown) [Compound 13]
- activity against a wide range of R5 HIV-1 isolates (R5 HIV-1 isolates): potent activity
- IC50 (HIV-1 gp120/CCR5): 1 nM
- oral bioavailability [5]: favorable
- QTc prolongation [6]: some incidents of QTc prolongation
- serious adverse events [6]: No serious adverse events
- tolerated dose ([6]; multiple dosing twice a day): 800 mg
- tolerated dose ([6]; single dose): 1200 mg

SMILES: O=C(Nc1ccc(Cl)cc1)N(CCCN1CCC(Cc2ccc(S(=O)(=O)N3CCOCC3)cc2)CC1)c1ccccc1 [Compound 15]
- IC50 (CCR5 [4]): 1 nM

SMILES: Cc1cccc(C)c1C(=O)N1CCC(C)(N2CCC(N(Cc3ccccc3)c3ccccc3)CC2)CC1 [Compound 19]
- IC50 (cyano CCR5): 0.7 nM

SMILES: C=CCN(C(=O)OCc1ccc([N+](=O)[O-])cc1)C1CCN(CCC(C)(CN(C)S(=O)(=O)c2ccccc2)c2ccccc2)CC1 (stereo not shown) [Compound 21]
- IC50 (CCR5 [7]): 4.4 nM

Further lines, results first:

- IC50 (CCR5 [3]): < 10 nM
SMILES: CCN(C(=O)Cc1ccc(S(=O)(=O)N(C)C)cc1)C1CCN(CCC(c2ccccc2)c2ccccc2)CC1 [Compound 5b]

- IC50 (CCR5 [4]): 3.4 nM
SMILES: CS(=O)(=O)N1CCC(C(=O)N(CCCN2CCC(Cc3ccc(S(N)(=O)=O)cc3)CC2)c2ccc(Cl)c(Cl)c2)CC1 [Compound 9a]

- IC50 (CCR5 [4]): 1.5 nM
SMILES: CNS(=O)(=O)c1ccc(CC2CCN(CCCN(C(=O)C3CCN(S(C)(=O)=O)CC3)c3ccc(Cl)c(Cl)c3)CC2)cc1 [Compound 9b]

- IC50 (CCR5 [4]): 1.2 nM
SMILES: CN(C)S(=O)(=O)c1ccc(CC2CCN(CCCN(C(=O)C3CCN(S(C)(=O)=O)CC3)c3ccc(Cl)c(Cl)c3)CC2)cc1 [Compound 9c]

- IC50 (CCR5 [4]): 1.3 nM
SMILES: CS(=O)(=O)N1CCC(C(=O)N(CCCN2CCC(Cc3ccc(S(=O)(=O)N4CCOCC4)cc3)CC2)c2ccc(Cl)c(Cl)c2)CC1 [Compound 9d]

- IC50 (CCR5 [4]): 27 nM
SMILES: CCCCOCCOc1ccc(-c2ccc3c(c2)C=C(C(=O)Nc2ccc(CN(C)C4CCOCC4)cc2)CCS3(=O)=O)cc1 [Compound 17a]

- IC50 (CCR5 [4]): 3.6 nM
SMILES: CCCCOCCOc1ccc(-c2ccc3c(c2)C=C(C(=O)Nc2ccc(CN(C)C4CCOCC4)cc2)CCN3CC(C)C)cc1 [Compound 17b]
